Biological target: recombinant mTOR (FLAG-tagged, residues 1362-2549) (Homo sapiens, UniProt P42345)
Assay: In vitro mTOR kinase assay (Test (a), AlphaScreen)
Format: biochemical
Settings: ATP 20 μM, read-out: Test (a): IC50 versus mTOR kinase
Protocol: (a) In Vitro mTOR Kinase Assay
Following expression in the mammalian HEK293 cell line, expressed protein was purified using the FLAG epitope tag using standard purification techniques.
Aliquots (2 μl) of each compound dilution were placed into a well of a Greiner 384-well low volume (LV) white polystyrene plate (Greiner Bio-one).
These assay solutions were incubated for 2 hours at room temperature.
The resultant signals arising from laser light excitation at 680 nm were read using a Packard Envision instrument.
The phosphorylated biotinylated peptide that is associated with AlphaScreen Streptavidin donor beads forms a complex with the p70 S6 Kinase (T389) 1A5 Monoclonal Antibody that is associated with Alphascreen Protein A acceptor beads. Upon laser light excitation at 680 nm, the donor bead: acceptor bead complex produces a signal that can be measured. Accordingly, the presence of mTOR kinase activity results in an assay signal. In the presence of an mTOR kinase inhibitor, signal strength is reduced.
mTOR enzyme inhibition for a given test compound was expressed as an IC50 value.

Sequence of recombinant mTOR (FLAG-tagged, residues 1362-2549) (P42345 1362-2549): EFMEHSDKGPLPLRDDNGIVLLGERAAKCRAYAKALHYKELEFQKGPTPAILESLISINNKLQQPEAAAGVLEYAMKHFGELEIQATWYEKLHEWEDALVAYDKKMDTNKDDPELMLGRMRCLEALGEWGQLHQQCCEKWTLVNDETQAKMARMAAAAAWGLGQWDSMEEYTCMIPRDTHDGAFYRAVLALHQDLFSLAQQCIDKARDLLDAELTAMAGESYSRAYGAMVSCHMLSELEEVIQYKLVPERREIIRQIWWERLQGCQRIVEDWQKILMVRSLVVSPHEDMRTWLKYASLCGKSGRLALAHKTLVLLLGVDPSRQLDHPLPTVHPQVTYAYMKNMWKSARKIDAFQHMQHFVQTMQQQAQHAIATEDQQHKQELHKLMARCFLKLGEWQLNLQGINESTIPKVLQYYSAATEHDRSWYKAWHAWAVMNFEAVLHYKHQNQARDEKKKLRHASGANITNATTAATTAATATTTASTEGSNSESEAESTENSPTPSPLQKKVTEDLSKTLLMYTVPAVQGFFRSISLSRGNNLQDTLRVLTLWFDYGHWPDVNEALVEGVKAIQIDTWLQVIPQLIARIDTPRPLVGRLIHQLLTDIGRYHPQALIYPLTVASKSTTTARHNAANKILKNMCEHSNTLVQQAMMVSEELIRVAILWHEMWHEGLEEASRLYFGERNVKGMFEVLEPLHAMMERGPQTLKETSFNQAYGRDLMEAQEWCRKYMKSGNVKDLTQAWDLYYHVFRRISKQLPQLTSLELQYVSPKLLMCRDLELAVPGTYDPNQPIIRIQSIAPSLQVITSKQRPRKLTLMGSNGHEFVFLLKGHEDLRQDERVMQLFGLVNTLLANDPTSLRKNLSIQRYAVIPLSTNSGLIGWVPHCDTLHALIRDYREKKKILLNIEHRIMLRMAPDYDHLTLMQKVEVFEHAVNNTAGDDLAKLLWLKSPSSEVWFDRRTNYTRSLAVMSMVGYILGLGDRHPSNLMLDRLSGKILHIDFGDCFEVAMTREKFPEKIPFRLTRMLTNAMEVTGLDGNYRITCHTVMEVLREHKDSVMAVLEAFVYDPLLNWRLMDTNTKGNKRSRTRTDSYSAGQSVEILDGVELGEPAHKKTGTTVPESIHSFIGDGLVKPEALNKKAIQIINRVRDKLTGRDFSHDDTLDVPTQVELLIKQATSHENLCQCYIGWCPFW

Compound | IC50 [nM]
C[C@H]1COCCN1c1cc(CS(C)(=O)=O)nc(-c2ccc(NC(=O)NCc3cccnc3)cc2)n1 [Example 24a, 1-[4-[4-[(3S)-3-methylmorpholin-4-yl]-6-(methylsulfonylmethyl)pyrimidin-2-yl]phenyl]-3-(pyridin-3-ylmethyl)urea] | 82
COc1ccc(NC(=O)Nc2ccc(-c3nc(CS(C)(=O)=O)cc(N4CCOC[C@@H]4C)n3)cc2OC)cc1 [Example 1i, 3-[2-methoxy-4-[4-[(3S)-3-methylmorpholin-4-yl]-6-(methylsulfonylmethyl)pyrimidin-2-yl]phenyl]-1-(4-methoxyphenyl)urea] | 550
C[C@H]1COCCN1c1cc(CNC2CC2)nc(-c2ccc(NC(=O)NCc3cnn(C)c3)cc2)n1 [Example 52a, 1-[4-[4-[(cyclopropylamino)methyl]-6-[(3S)-3-methylmorpholin-4-yl]pyrimidin-2-yl]phenyl]-3-[(1-methylpyrazol-4-yl)methyl]urea] | 330
C[C@H]1COCCN1c1cc(C(C)(C)S(C)(=O)=O)nc(-c2cnc(NC(=O)NC3CC3)s2)n1 [Example 47a, 3-cyclopropyl-1-[5-[4-[(3S)-3-methylmorpholin-4-yl]-6-(2-methylsulfonylpropan-2-yl)pyrimidin-2-yl]-1,3-thiazol-2-yl]urea] | 1200
C[C@H]1COCCN1c1cc(CN(C)C2CC2)nc(-c2ccc(NC(=O)Nc3ccccc3)cc2)n1 [Example 30d, 1-[4-[4-[(cyclopropyl-methyl-amino)methyl]-6-[(3S)-3-methylmorpholin-4-yl]pyrimidin-2-yl]phenyl]-3-phenyl-urea] | 280
CNC(=O)Nc1ccc(-c2nc(CS(=O)(=O)c3ccccc3)cc(N3CCOC[C@@H]3C)n2)cc1 [Example 19a, 1-[4-[4-(benzenesulfonylmethyl)-6-[(3S)-3-methylmorpholin-4-yl]pyrimidin-2-yl]phenyl]-3-methyl-urea] | 4.7
CC(C)S(=O)(=O)Cc1cc(N2CCOC[C@@H]2C)nc(-c2ccc(NC(=O)NC3CCN(C)CC3)cc2)n1 [Example 20t, 1-[4-[4-[(3S)-3-methylmorpholin-4-yl]-6-(propan-2-ylsulfonylmethyl)pyrimidin-2-yl]phenyl]-3-(1-methyl-4-piperidyl)urea] | 600
Cc1cc(NC(=O)Nc2ccc(-c3nc(N4CCOC[C@@H]4C)cc(C(C)(C)S(C)(=O)=O)n3)cc2)no1 [Example 24t, 3-[4-[4-[(3S)-3-methylmorpholin-4-yl]-6-(2-methylsulfonylpropan-2-yl)pyrimidin-2-yl]phenyl]-1-(5-methyl-1,2-oxazol-3-yl)urea] | 12
CNC(=O)Nc1ccc(-c2nc(N3CCOC[C@@H]3C)cc(C(C)(C)S(C)(=O)=O)n2)cc1 [Example 21f, 3-methyl-1-[4-[4-[(3S)-3-methylmorpholin-4-yl]-6-(2-methylsulfonylpropan-2-yl)pyrimidin-2-yl]phenyl]urea] | 17
CNC(=O)Nc1ccc(-c2nc(CS(=O)(=O)c3ncc[nH]3)cc(N3CCOC[C@@H]3C)n2)cc1 [Example 33c, 1-[4-[4-(1H-imidazol-2-ylsulfonylmethyl)-6-[(3S)-3-methylmorpholin-4-yl]pyrimidin-2-yl]phenyl]-3-methyl-urea] | 1.4
CCNC(=O)Nc1ccc(-c2nc(CS(=O)(=O)C(C)C)cc(N3CCOC[C@@H]3C)n2)cc1 [Example 20q, 1-ethyl-3-[4-[4-[(3S)-3-methylmorpholin-4-yl]-6-(propan-2-ylsulfonylmethyl)pyrimidin-2-yl]phenyl]urea] | 39
C[C@H]1COCCN1c1cc(CS(=O)(=O)c2ccccc2C(F)(F)F)nc(-c2ccc(NC(=O)NC3CC3)cc2)n1 [Example 43f, 3-cyclopropyl-1-[4-[4-[(3S)-3-methylmorpholin-4-yl]-6-[[2-(trifluoromethyl)phenyl]sulfonylmethyl]pyrimidin-2-yl]phenyl]urea] | 110
C[C@H]1COCCN1c1cc(CS(=O)(=O)c2ccccc2)nc(-c2ccc(NC(=O)NCCN(C)C)cc2)n1 [Example 20h, 1-[4-[4-(benzenesulfonylmethyl)-6-[(3S)-3-methylmorpholin-4-yl]pyrimidin-2-yl]phenyl]-3-(2-dimethylaminoethyl)urea] | 440
C[C@H]1COCCN1c1cc(CS(=O)(=O)CC(N)=O)nc(-c2ccc(NC(=O)NCc3cnn(C)c3)cc2)n1 [Example 53a] | 600

Now from value to molecule:

IC50 [nM] | Compound
270 | CN1CCC(NC(=O)Nc2ccc(-c3nc(N4CCOCC4)cc(C(C)(C)S(C)(=O)=O)n3)cc2)CC1 [Example 21d, 3-(1-methyl-4-piperidyl)-1-[4-[4-(2-methylsulfonylpropan-2-yl)-6-morpholin-4-yl-pyrimidin-2-yl]phenyl]urea]
1300 | CC(C)S(=O)(=O)Cc1cc(N2CCOCC2)nc(-c2ccc(NC(=O)NC3CCN(C)CC3)cc2)n1 [Example 20o, 3-(1-methyl-4-pipendyl)-1-[4-[4-morpholin-4-yl-6-(propan-2-ylsulfonylmethyl)pyrimidin-2-yl]phenyl]urea]
420 | CS(=O)(=O)Cc1cc(N2CCOCC2)nc(-c2ccc(NC(=O)Nc3ccc(Cl)cc3)cc2)n1 [Example 7b, 3-(4-chlorophenyl)-1-[4-[4-(methylsulfonylmethyl)-6-morpholin-4-yl-pyrimidin-2-yl]phenyl]urea]
630 | CS(=O)(=O)Cc1cc(N2CCOCC2)nc(-c2ccc(NC(=O)N3CCC(S(C)(=O)=O)C3)cc2)n1 (stereo not drawn) [Example 45n, 3-methylsulfonyl-N-[4-[4-(methylsulfonylmethyl)-6-morpholin-4-yl-pyrimidin-2-yl]phenyl]pyrrolidine-1-carboxamide]
1100 | C[C@H]1COCCN1C(=O)Nc1ccc(-c2nc(CS(C)(=O)=O)cc(N3CCOC[C@@H]3C)n2)cc1 [Example 35n, (3S)-3-methyl-N-[4-[4-[(3S)-3-methylmorpholin-4-yl]-6-(methylsulfonylmethyl)pyrimidin-2-yl]phenyl]morpholine-4-carboxamide]
360 | CC(C)(c1cc(N2CCOCC2)nc(-c2ccc(NC(=O)NC3CC3)cc2)n1)S(C)(=O)=O [Example 21b, 3-cyclopropyl-1-[4-[4-(2-methylsulfonylpropan-2-yl)-6-morpholin-4-yl-pyrimidin-2-yl]phenyl]urea]
170 | O=C(Nc1ccc(-c2nc(CS(=O)(=O)c3ccccc3)cc(N3CCOCC3)n2)cc1)NC1CC1 [Example 20b, 1-[4-[4-(benzenesulfonylmethyl)-6-morpholin-4-yl-pyrimidin-2-yl]phenyl]-3-cyclopropyl-urea]
81 | CC(C)S(=O)(=O)Cc1cc(N2CCOCC2)nc(-c2ccc(NC(=O)NC3CC3)cc2)n1 [Example 20m, 3-cyclopropyl-1-[4-[4-morpholin-4-yl-6-(propan-2-ylsulfonylmethyl)pyrimidin-2-yl]phenyl]urea]
82 | CC(CO)NC(=O)Nc1ccc(-c2nc(CS(C)(=O)=O)cc(N3CCOCC3)n2)cc1 (stereo not drawn) [Example 45t, 1-(1-hydroxypropan-2-yl)-3-[4-[4-(methylsulfonylmethyl)-6-morpholin-4-yl-pyrimidin-2-yl]phenyl]urea]
190 | CS(=O)(=O)Cc1cc(N2CCOCC2)nc(-c2ccc(NC(=O)Nc3cccs3)cc2)n1 [Example 7r, 1-[4-[4-(methylsulfonylmethyl)-6-morpholin-4-yl-pyrimidin-2-yl]phenyl]-3-thiophen-2-yl-urea]

Source: patent US7750003B2, “Compounds-943” (AstraZeneca AB, priority 2006, dated 2010)
